In PubChem BioAssay AID224 (DTP/NCI, 2004):
“And” between values parts separate entries of the source, which are not always exact repeats. Equal values may be shown once. Toxic doses and inconclusive results are not listed.

Tested on: P335 leukemia ip, BDF1 mice, survival T/C %
Experiment: NCI In Vivo Anticancer Drug Screen. Data for tumor model P335 Leukemia (intraperitoneal) in B6D2F1 (BDF1) mice
Settings: endpoint: mean survival time, higher = longer survival
Description: The antitumor activity of compounds was measured in mice bearing transplantable tumors. Survival or tumor size were measured and the results are expressed as the measurement made in the treated group (T) divided by the measurement made in the vehicle treated control group (C). The tumor model used in this assay is P335 Leukemia (intraperitoneal) in B6D2F1 (BDF1) mice

[1] = dose: 1.6 mg/kg/injection, schedule: Q01DX Z (ip), vehicle: carboxymethylcellulose (CMC)
[2] = dose: 3.1 mg/kg/injection, schedule: Q01DX Z (ip), vehicle: carboxymethylcellulose (CMC)
[3] = dose: 6.2 mg/kg/injection, schedule: Q01DX Z (ip), vehicle: carboxymethylcellulose (CMC)
[4] = dose: 12.5 mg/kg/injection, schedule: Q01DX Z (ip), vehicle: carboxymethylcellulose (CMC)
[5] = dose: 25.0 mg/kg/injection, schedule: Q01DX Z (ip), vehicle: carboxymethylcellulose (CMC)
[6] = dose: 50.0 mg/kg/injection, schedule: Q01DX Z (ip), vehicle: carboxymethylcellulose (CMC)
[7] = dose: 100.0 mg/kg/injection, schedule: Q01DX Z (ip), vehicle: carboxymethylcellulose (CMC)
[8] = dose: 200.0 mg/kg/injection, schedule: Q01DX Z (ip), vehicle: carboxymethylcellulose (CMC)

In the case of `CC[C@H](c1ccc(O)cc1)[C@@H](CC)c1ccc(O)cc1`, the T/C (dose: 0.5 mg/kg/injection, schedule: Q01DX Z (sc), vehicle: steriod suspending solution) was 103 % of control, the T/C (dose: 1.0 mg/kg/injection, schedule: Q01DX Z (sc), vehicle: steriod suspending solution) was 108 % of control and the T/C (dose: 2.0 mg/kg/injection, schedule: Q01DX Z (sc), vehicle: steriod suspending solution) was 115 % of control and 116 % of control. The T/C (dose: 4.0 mg/kg/injection, schedule: Q01DX Z (sc), vehicle: steriod suspending solution) was 114 % of control, the T/C (dose: 8.0 mg/kg/injection, schedule: Q01DX Z (sc), vehicle: steriod suspending solution) was 122 % of control and the T/C (dose: 16.0 mg/kg/injection, schedule: Q01DX Z (sc), vehicle: steriod suspending solution) was 111 % of control. The T/C (dose: 31.0 mg/kg/injection, schedule: Q01DX Z (sc), vehicle: steriod suspending solution) was 105 % of control, the T/C (dose: 62.5 mg/kg/injection, schedule: Q01DX Z (sc), vehicle: steriod suspending solution) was 103 % of control and 111 % of control and the T/C (dose: 125.0 mg/kg/injection, schedule: Q01DX Z (sc), vehicle: steriod suspending solution) was 103 % of control. The T/C (dose: 250.0 mg/kg/injection, schedule: Q01DX Z (sc), vehicle: steriod suspending solution) was 106 % of control and the T/C (dose: 500.0 mg/kg/injection, schedule: Q01DX Z (sc), vehicle: steriod suspending solution) was 97 % of control.
In the case of `CN(C)c1ccc(Nc2c3ccccc3nc3ccccc23)cc1`, the T/C [1] was 112 % of control, the T/C [2] was 93 % of control and the T/C [3] was 96 % of control. The T/C [4] was 117 % of control.
With `O=C(Nc1ccc(NC2=NCCN2)cc1)c1ccc(C(=O)Nc2ccc(NC3=NCCN3)cc2)cc1` the T/C (dose: 4.0 mg/kg/injection, schedule: Q01DX Z (ip), vehicle: saline) was 175 % of control, the T/C (dose: 8.0 mg/kg/injection, schedule: Q01DX Z (ip), vehicle: saline) was 208 % of control and the T/C (dose: 16.0 mg/kg/injection, schedule: Q01DX Z (ip), vehicle: saline) was 170 % of control. For the same compound, the T/C (dose: 32.0 mg/kg/injection, schedule: Q01DX Z (ip), vehicle: saline) was 91 % of control.
For `Cn1cnc([N+](=O)[O-])c1Sc1ncnc2nc[nH]c12`, the T/C [4] was 89 % of control, the T/C [5] was 105 % of control and the T/C [6] was 115 % of control.
For `O=C(Nc1ccc(C2=NCCN2)cc1)c1ccc(C(=O)Nc2ccc(C3=NCCN3)cc2)cc1`, the T/C [5] was 112 % of control, the T/C [6] was 93 % of control and the T/C [7] was 112 % of control. The T/C [8] was 179 % of control.
In the case of `S=P(N1CCOCC1)(N1CC1)N1CC1`, the T/C [4] was 101 % of control and the T/C [5] was 93 % of control.
For `O=c1[nH]c(=O)n(C2CC(O)C(CO)O2)cc1F` (stereo not given), the T/C [5] was 111 % of control, the T/C [6] was 104 % of control and the T/C [7] was 111 % of control. For the same compound, the T/C [8] was 114 % of control, the T/C (dose: 400.0 mg/kg/injection, schedule: Q01DX Z (ip), vehicle: carboxymethylcellulose (CMC)) was 87 % of control and the T/C (dose: 800.0 mg/kg/injection, schedule: Q01DX Z (ip), vehicle: carboxymethylcellulose (CMC)) was 86 % of control.
In the case of `Nc1nc(N)c2nc(CNc3ccc(C(=O)NC(CCC(=O)O)C(=O)O)cc3)cnc2n1` (stereo not given), the T/C (dose: 16.0 micrograms/kg/injection, schedule: Q01DX Z (ip), vehicle: alkali diluted with saline) was 96 % of control, the T/C (dose: 31.0 micrograms/kg/injection, schedule: Q01DX Z (ip), vehicle: alkali diluted with saline) was 121 % of control and the T/C (dose: 62.0 micrograms/kg/injection, schedule: Q01DX Z (ip), vehicle: alkali diluted with saline) was 169 % of control. For the same compound, the T/C (dose: 63.0 micrograms/kg/injection, schedule: Q01DX Z (ip), vehicle: alkali diluted with saline) was 96 % of control and the T/C (dose: 250.0 micrograms/kg/injection, schedule: Q01DX Z (ip), vehicle: alkali diluted with saline) was 98 % of control.
In the case of `CN(C)c1ccc(/C=C\c2ccnc3ccccc23)cc1`, the T/C (dose: 0.8 mg/kg/injection, schedule: Q01DX Z (ip), vehicle: water) was 100 % of control, the T/C (dose: 1.6 mg/kg/injection, schedule: Q01DX Z (ip), vehicle: water) was 98 % of control and the T/C (dose: 3.1 mg/kg/injection, schedule: Q01DX Z (ip), vehicle: water) was 102 % of control. For the same compound, the T/C (dose: 6.2 mg/kg/injection, schedule: Q01DX Z (ip), vehicle: water) was 109 % of control.
For `CCCCCCCCCCCCNCCCCCCCCCCCC`, the T/C (dose: 3.75 mg/kg/injection, schedule: Q01DX Z (ip), vehicle: carboxymethylcellulose (CMC)) was 91 % of control, the T/C (dose: 7.5 mg/kg/injection, schedule: Q01DX Z (ip), vehicle: carboxymethylcellulose (CMC)) was 115 % of control and the T/C (dose: 15.0 mg/kg/injection, schedule: Q01DX Z (ip), vehicle: carboxymethylcellulose (CMC)) was 92 % of control. For the same compound, the T/C (dose: 30.0 mg/kg/injection, schedule: Q01DX Z (ip), vehicle: carboxymethylcellulose (CMC)) was 88 % of control.
For `CN(C)CC(=O)c1ccc(O)c(O)c1`, the T/C (dose: 15.6 mg/kg/injection, schedule: Q01DX Z (ip), vehicle: saline) was 103 % of control, the T/C (dose: 31.25 mg/kg/injection, schedule: Q01DX Z (ip), vehicle: saline) was 109 % of control and the T/C (dose: 62.5 mg/kg/injection, schedule: Q01DX Z (ip), vehicle: saline) was 113 % of control. For the same compound, the T/C (dose: 125.0 mg/kg/injection, schedule: Q01DX Z (ip), vehicle: saline) was 109 % of control and 119 % of control and the T/C (dose: 500.0 mg/kg/injection, schedule: Q01DX Z (ip), vehicle: saline) was 89 % of control.
In the case of `C[N+](C)(C)c1ncnc2nc[nH]c12`, the T/C [4] was 107 % of control, the T/C [5] was 94 % of control and the T/C [6] was 110 % of control. The T/C [7] was 87 % of control and 107 % of control.
For `C[C@]12C=CC(=O)C=C1CC[C@@H]1[C@@H]2C(=O)C[C@@]2(C)[C@H]1CC[C@]2(O)C(=O)CO`, the T/C (dose: 12.5 mg/kg/injection, schedule: Q01DX Z (sc), vehicle: steriod suspending solution) was 101 % of control, the T/C (dose: 25.0 mg/kg/injection, schedule: Q01DX Z (sc), vehicle: steriod suspending solution) was 108 % of control and the T/C (dose: 50.0 mg/kg/injection, schedule: Q01DX Z (sc), vehicle: steriod suspending solution) was 104 % of control. The T/C (dose: 100.0 mg/kg/injection, schedule: Q01DX Z (sc), vehicle: steriod suspending solution) was 108 % of control.
`CC[C@]1(O)C[C@H]2CN(CCc3c([nH]c4ccccc34)[C@@](C(=O)OC)(c3cc4c(cc3OC)N(C=O)[C@H]3[C@@](O)(C(=O)OC)[C@H](OC(C)=O)[C@]5(CC)C=CCN6CC[C@]43[C@@H]65)C2)C1` was tested, and the T/C (dose: 0.12 mg/kg/injection, schedule: Q01DX Z (ip), vehicle: water) was 234 % of control and 101 % of control and 107 % of control, the T/C (dose: 0.5 mg/kg/injection, schedule: Q01DX Z (ip), vehicle: water) was 89 % of control and 90 % of control and the T/C (dose: 1.0 mg/kg/injection, schedule: Q01DX Z (ip), vehicle: water) was 86 % of control.
With `O=CCC(O)C(O)C(O)CO` (stereo not given) the T/C (dose: 0.8 mg/kg/injection, schedule: Q01DX Z (ip), vehicle: carboxymethylcellulose (CMC)) was 104 % of control, the T/C (dose: 16.0 mg/kg/injection, schedule: Q01DX Z (ip), vehicle: carboxymethylcellulose (CMC)) was 100 % of control and the T/C (dose: 31.0 mg/kg/injection, schedule: Q01DX Z (ip), vehicle: carboxymethylcellulose (CMC)) was 93 % of control. The T/C (dose: 62.5 mg/kg/injection, schedule: Q01DX Z (ip), vehicle: carboxymethylcellulose (CMC)) was 114 % of control and the T/C (dose: 125.0 mg/kg/injection, schedule: Q01DX Z (ip), vehicle: carboxymethylcellulose (CMC)) was 104 % of control.
For `C[n+]1c2ccccc2nc2c(N)cc(N)cc21`, the T/C [1] was 94 % of control, the T/C [2] was 86 % of control and the T/C [3] was 97 % of control. For the same compound, the T/C (dose: 6.25 mg/kg/injection, schedule: Q01DX Z (ip), vehicle: carboxymethylcellulose (CMC)) was 124 % of control, the T/C [4] was 100 % of control and 114 % of control and the T/C [5] was 120 % of control.
In the case of `C[C@@H]1C[C@@H]([C@H](O)CC2CC(=O)NC(=O)C2)C(=O)[C@@H](C)C1`, the T/C (dose: 0.78 mg/kg/injection, schedule: Q01DX Z (ip), vehicle: water) was 113 % of control, the T/C (dose: 1.56 mg/kg/injection, schedule: Q01DX Z (ip), vehicle: water) was 106 % of control and 112 % of control and the T/C (dose: 3.12 mg/kg/injection, schedule: Q01DX Z (ip), vehicle: water) was 89 % of control. For the same compound, the T/C (dose: 6.25 mg/kg/injection, schedule: Q01DX Z (ip), vehicle: water) was 100 % of control, the T/C (dose: 12.5 mg/kg/injection, schedule: Q01DX Z (ip), vehicle: water) was 106 % of control and the T/C (dose: 25.0 mg/kg/injection, schedule: Q01DX Z (ip), vehicle: water) was 100 % of control. The T/C (dose: 50.0 mg/kg/injection, schedule: Q01DX Z (ip), vehicle: water) was 111 % of control.
For `C[C@H](N)C(=O)N[C@@H]1[C@H]2C(=C(O)C[C@@H](O)[C@@H]2O)C(=O)O[C@@H]1C`, the T/C (dose: 23.43 mg/kg/injection, schedule: Q01DX Z (ip), vehicle: saline) was 114 % of control, the T/C (dose: 187.5 mg/kg/injection, schedule: Q01DX Z (ip), vehicle: saline) was 168 % of control and the T/C (dose: 375.0 mg/kg/injection, schedule: Q01DX Z (ip), vehicle: saline) was 151 % of control and 182 % of control. The T/C (dose: 750.0 mg/kg/injection, schedule: Q01DX Z (ip), vehicle: saline) was 191 % of control.
